From ChEMBL document CHEMBL6096636 (Bioorg Med Chem, 2024)
The source made the active and inactive calls. The rule behind the calls is not given here.

What was measured:
Plasmodium falciparum [1] = experiment: Antimalarial activity against sulfadoxine-pyrimethamine and mefloquine resistant Plasmodium falciparum clinical isolate CP286 assessed as inhibition of growth incubated for 72 hrs by SYBR green I based assay; type: functional, organism-based
[2] = Resistance index, ratio of IC50 for chloroquine resistant Plasmodium falciparum clinical isolate GB4 to IC50 for erythrocytic stage of Plasmodium falciparum 3D7; type: functional
[3] = Resistance index, ratio of IC50 for quinine and chloroquine resistant Plasmodium falciparum clinical isolate C2A to IC50 for erythrocytic stage of Plasmodium falciparum 3D7; type: functional
[4] = Resistance index, ratio of IC50 for sulfadoxine-pyrimethamine and mefloquine resistant Plasmodium falciparum clinical isolate CP286 to IC50 for erythrocytic stage of Plasmodium falciparum 3D7; type: functional
Plasmodium falciparum [5] = experiment: microbe, parasite or virus in culture; conditions: 3D7, 72 h
Description: Antimalarial activity against erythrocytic stage of Plasmodium falciparum 3D7 assessed as inhibition of growth incubated for 72 hrs by SYBR green I based assay

Plasmodium falciparum [6] = experiment: microbe, parasite or virus in culture; conditions: Dd2, 72 h
Description: Antimalarial activity against erythrocytic stage of chloroquine-resistant Plasmodium falciparum Dd2 assessed as inhibition of growth incubated for 72 hrs by SYBR green I based assay

Plasmodium falciparum [7] = experiment: microbe, parasite or virus in culture; conditions: 72 h
Description: Antimalarial activity against chloroquine resistant Plasmodium falciparum clinical isolate GB4 assessed as inhibition of growth incubated for 72 hrs by SYBR green I based assay

Plasmodium falciparum [8] = experiment: microbe, parasite or virus in culture; conditions: 72 h; remark: listed apart in the source
Description: Antimalarial activity against quinine and chloroquine resistant Plasmodium falciparum clinical isolate C2A assessed as inhibition of growth incubated for 72 hrs by SYBR green I based assay

[9] = Cytotoxicity against human HepG2 cells assessed as inhibition of cell growth incubated for 72 hrs by CCK8 assay; type: toxicity, cell-based
[10] = Cytotoxicity against HEK293T cells assessed as inhibition of cell growth incubated for 72 hrs by CCK8 assay; type: toxicity, cell-based, HEK-293T; conditions: human
[11] = Selectivity index, ratio of IC50 for HEK293T cells to IC50 for erythrocytic stage of Plasmodium falciparum 3D7; type: toxicity, cell-based; conditions: human, read-out: Ratio IC50
Plasmodium falciparum [12] = experiment: Inhibition of asynchronous ring stage Plasmodium falciparum 3D7 HDAC assessed as increase in histone H3 acetylation level at 20 times of IC50 concentration incubated for 2 hrs by Western blot analysis
Histone deacetylase 1 = Histone deacetylase 1 (Homo sapiens, UniProt Q13547); experiment: Inhibition of recombinant human HDAC1 using Ac-peptide as substrate preincubated for 15 mins followed by substrate addition and measured after 60 mins
Sequence of Histone deacetylase 1 (Q13547 whole entry): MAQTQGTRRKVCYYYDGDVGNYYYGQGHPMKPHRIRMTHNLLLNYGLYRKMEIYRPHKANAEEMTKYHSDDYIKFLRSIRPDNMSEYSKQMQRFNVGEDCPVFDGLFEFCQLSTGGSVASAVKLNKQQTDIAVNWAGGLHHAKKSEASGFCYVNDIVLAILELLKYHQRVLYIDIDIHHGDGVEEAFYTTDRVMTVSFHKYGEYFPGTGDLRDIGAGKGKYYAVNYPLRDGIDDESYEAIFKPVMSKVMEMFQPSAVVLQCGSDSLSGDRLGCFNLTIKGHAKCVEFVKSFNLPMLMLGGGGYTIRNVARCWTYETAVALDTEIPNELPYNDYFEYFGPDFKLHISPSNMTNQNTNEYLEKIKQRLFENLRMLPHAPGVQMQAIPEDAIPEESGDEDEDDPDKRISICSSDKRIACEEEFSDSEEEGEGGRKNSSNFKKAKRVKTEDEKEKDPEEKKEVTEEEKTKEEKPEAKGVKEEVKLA

Histone deacetylase 2 = Histone deacetylase 2 (Homo sapiens, UniProt Q92769); experiment: Inhibition of recombinant human HDAC2 using Ac-peptide as substrate preincubated for 15 mins followed by substrate addition and measured after 60 mins
Sequence of Histone deacetylase 2 (Q92769 whole entry): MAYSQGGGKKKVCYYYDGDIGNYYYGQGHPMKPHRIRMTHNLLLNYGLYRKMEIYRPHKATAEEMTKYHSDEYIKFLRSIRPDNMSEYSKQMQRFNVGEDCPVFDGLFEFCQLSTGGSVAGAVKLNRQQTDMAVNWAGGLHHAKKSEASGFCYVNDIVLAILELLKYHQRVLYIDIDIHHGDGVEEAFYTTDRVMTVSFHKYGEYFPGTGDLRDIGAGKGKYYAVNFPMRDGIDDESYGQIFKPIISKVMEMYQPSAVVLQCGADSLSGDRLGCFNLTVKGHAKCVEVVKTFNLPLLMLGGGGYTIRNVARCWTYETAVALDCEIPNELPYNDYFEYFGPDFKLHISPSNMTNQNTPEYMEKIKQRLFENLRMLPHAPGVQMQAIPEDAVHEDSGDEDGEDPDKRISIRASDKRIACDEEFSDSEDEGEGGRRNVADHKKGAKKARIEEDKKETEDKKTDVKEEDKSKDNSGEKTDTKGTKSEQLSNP

Histone deacetylase 3 = Histone deacetylase 3 (Homo sapiens, UniProt O15379); experiment: Inhibition of recombinant human HDAC3 using Ac-peptide as substrate preincubated for 15 mins followed by substrate addition and measured after 60 mins
Sequence of Histone deacetylase 3 (O15379 whole entry): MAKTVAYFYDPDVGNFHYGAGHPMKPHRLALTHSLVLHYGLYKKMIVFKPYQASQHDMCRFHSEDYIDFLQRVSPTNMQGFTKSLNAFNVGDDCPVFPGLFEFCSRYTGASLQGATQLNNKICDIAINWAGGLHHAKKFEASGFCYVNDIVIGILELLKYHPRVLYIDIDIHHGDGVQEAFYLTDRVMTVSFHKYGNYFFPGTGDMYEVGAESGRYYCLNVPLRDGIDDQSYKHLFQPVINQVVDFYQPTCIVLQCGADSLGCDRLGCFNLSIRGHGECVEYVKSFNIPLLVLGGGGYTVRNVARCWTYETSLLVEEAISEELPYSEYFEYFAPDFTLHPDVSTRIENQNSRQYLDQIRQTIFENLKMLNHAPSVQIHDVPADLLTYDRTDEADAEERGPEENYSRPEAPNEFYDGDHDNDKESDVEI

[13] = biological target: T1, Protein deacetylase HDAC6 (Homo sapiens, UniProt Q9UBN7); experiment: Inhibition of recombinant human HDAC6 using Ac-peptide as substrate preincubated for 15 mins followed by substrate addition and measured after 60 mins
T1 sequence (Q9UBN7 whole entry): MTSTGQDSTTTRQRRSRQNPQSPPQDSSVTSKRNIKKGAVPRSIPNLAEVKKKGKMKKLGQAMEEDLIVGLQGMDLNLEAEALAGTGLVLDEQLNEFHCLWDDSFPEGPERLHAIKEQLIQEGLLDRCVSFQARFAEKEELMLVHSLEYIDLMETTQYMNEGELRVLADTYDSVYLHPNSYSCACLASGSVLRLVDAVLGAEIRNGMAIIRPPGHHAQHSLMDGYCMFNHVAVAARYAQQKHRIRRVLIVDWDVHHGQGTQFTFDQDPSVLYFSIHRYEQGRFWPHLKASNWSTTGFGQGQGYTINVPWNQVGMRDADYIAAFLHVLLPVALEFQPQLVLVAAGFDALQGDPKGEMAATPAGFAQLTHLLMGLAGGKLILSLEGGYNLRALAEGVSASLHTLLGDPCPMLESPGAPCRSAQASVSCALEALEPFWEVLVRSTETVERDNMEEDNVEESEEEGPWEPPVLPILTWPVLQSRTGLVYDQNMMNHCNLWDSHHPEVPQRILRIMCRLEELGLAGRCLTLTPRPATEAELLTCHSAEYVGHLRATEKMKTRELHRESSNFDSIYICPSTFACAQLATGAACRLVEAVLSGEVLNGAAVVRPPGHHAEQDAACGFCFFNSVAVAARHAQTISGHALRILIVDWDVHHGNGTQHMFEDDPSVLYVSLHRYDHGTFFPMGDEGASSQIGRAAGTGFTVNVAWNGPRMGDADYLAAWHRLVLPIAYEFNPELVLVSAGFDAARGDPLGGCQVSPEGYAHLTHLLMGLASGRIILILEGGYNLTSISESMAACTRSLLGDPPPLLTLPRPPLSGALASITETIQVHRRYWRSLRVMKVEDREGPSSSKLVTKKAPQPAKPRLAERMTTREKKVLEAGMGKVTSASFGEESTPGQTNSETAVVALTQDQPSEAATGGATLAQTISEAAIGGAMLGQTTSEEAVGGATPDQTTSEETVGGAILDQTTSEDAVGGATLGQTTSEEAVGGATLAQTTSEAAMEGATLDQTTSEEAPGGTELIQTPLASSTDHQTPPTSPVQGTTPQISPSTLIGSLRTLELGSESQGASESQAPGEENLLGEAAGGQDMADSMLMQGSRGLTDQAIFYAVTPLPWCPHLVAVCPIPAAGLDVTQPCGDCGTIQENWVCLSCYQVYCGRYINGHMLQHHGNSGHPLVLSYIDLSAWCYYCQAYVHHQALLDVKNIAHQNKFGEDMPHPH

Histone deacetylase 8 = biological target: T2, Histone deacetylase 8 (Homo sapiens, UniProt Q9BY41); experiment: Inhibition of recombinant human HDAC8 using Ac-peptide as substrate preincubated for 15 mins followed by substrate addition for 240 mins and measured after 120 mins of trypsin addition
T2 sequence (Q9BY41 whole entry): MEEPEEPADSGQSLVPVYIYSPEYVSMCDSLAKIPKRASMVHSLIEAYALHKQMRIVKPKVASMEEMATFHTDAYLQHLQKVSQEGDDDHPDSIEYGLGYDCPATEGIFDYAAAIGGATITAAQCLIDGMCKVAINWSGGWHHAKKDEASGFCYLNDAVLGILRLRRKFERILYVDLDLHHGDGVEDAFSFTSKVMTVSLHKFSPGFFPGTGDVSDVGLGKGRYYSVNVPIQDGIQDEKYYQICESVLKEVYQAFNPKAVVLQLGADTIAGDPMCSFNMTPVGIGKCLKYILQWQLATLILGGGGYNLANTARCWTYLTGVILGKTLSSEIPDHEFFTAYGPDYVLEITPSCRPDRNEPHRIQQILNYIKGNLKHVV

[14] = biological target: T3, NAD-dependent protein deacetylase sirtuin-2 (Homo sapiens, UniProt Q8IXJ6); experiment: Inhibition of recombinant human SIRT2 using Ac-peptide as substrate preincubated for 15 mins followed by substrate addition for 240 mins and measured after 120 mins of trypsin addition
T3 sequence (Q8IXJ6 whole entry): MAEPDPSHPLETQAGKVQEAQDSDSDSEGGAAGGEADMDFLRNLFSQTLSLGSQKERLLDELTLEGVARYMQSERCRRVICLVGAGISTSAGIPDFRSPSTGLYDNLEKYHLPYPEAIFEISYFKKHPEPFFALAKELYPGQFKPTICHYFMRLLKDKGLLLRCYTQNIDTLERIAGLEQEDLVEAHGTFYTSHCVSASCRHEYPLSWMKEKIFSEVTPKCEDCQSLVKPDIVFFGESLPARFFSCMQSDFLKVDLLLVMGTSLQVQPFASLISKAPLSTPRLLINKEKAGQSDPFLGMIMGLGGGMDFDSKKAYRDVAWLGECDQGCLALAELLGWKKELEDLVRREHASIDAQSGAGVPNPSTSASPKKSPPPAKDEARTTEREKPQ

[15] = Metabolic stability in mouse liver microsomes assessed as half-life measured upto 45 mins in presence of NADPH by LC-MS/MS analysis; type: ADME, Microsome
[16] = Metabolic stability in mouse liver microsomes assessed as clearance measured upto 45 mins in presence of NADPH by LC-MS/MS analysis; type: ADME, Microsome; conditions: read-out: CLH
Plasmodium yoelii [17] = experiment: Antimalarial activity against erythrocytic stage of Plasmodium yoelli infected in female mouse model assessed as reduction in parasitemia at 30 mg/kg, ip pre-infected with parasite followed by twice daily compound administration from day 3 to 6 by microscopic analysis; type: functional, organism-based; conditions: time 4.0 day
[18] = Toxicity in female mouse model infected with erythrocytic stage of Plasmodium yoelli assessed as animal death at 30 mg/kg, ip pre-infected with parasite followed by twice daily compound administration from day 3 to 6; type: organism-based; conditions: in vivo, 96 h, time 4 day
Plasmodium yoelii [19] = experiment: Antimalarial activity against erythrocytic stage of Plasmodium yoelli infected in female mouse model assessed as reduction in parasitemia at 60 mg/kg, ip pre-infected with parasite followed by once daily compound administration from day 3 to 6 by microscopic analysis; type: functional, organism-based; conditions: time 4.0 day
[20] = Toxicity in female mouse model at 150 mg/kg, ip administered as single dose; type: organism-based; conditions: in vivo
[21] = Toxicity in female mouse model infected with erythrocytic stage of Plasmodium yoelli assessed as animal death at 30 mg/kg, ip pre-infected with parasite followed by […] compound administration from day 3 to 6; type: organism-based; conditions: in vivo, 96 h, time 4 day
[22] = Tmax in female Balb/c mouse at 5 mg/kg, ip measured after 24 hrs by LC-MS/MS analysis; type: ADME, organism-based; conditions: in vivo

C[C@H]1[C@@H](O)O[C@@H]2O[C@@]3(C)CC[C@H]4[C@H](C)CC[C@@H]1[C@@]24OO3 [ARTENIMOL]
IC50 (Plasmodium falciparum [1]): 5.6 nM | Ratio IC50 [2]: 1.2 | Ratio IC50 [3]: 1.4 | Ratio IC50 [4]: 2.1 | IC50 (Plasmodium falciparum [5]): 2.7 nM | IC50 (Plasmodium falciparum [6]): 2.68 nM | IC50 (Plasmodium falciparum [7]): 3.2 nM | IC50 (Plasmodium falciparum [8]): 3.7 nM

COc1ccc2c(CN[C@H]3CC[C@@H](Nc4ncc(C(=O)NO)cn4)CC3)cn(C)c2c1.Cl
IC50 at 72 h [9]: 12800 nM | IC50 at 72 h [10]: > 10000 nM | selectivity ratio [11]: > 867 | IC50 (Plasmodium falciparum [1]): 38.7 nM | inhibition (Plasmodium falciparum [12]): Active | IC50 (Histone deacetylase 1): 9.1 nM | IC50 (Histone deacetylase 2): 14 nM | IC50 (Histone deacetylase 3): 21 nM | IC50 [13]: 90 nM | IC50 (Histone deacetylase 8): 30 nM | IC50 [14]: > 10000 nM | half-life [15]: 48 min | CLint scaled [16]: 114 mL/min/kg | Activity (Plasmodium yoelii [17]): Active; Only Slight Recurrence Of Parasitemia Was Observed Upon Cessation Of Treatment | Activity [18]: Toxic | IC50 (Plasmodium falciparum [5]): 2.7 nM | IC50 (Plasmodium falciparum [6]): 12.8 nM | IC50 (Plasmodium falciparum [7]): 27.2 nM | IC50 (Plasmodium falciparum [8]): 22.7 nM

Cn1cc(CNCC2CCN(c3ncc(C(=O)NO)cn3)CC2)c2ccccc21 [QUISINOSTAT]
inhibition (Plasmodium falciparum [12]): Active | IC50 [14]: > 10000 nM | half-life [15]: 13.3 min | Activity (Plasmodium yoelii [17]): Not active; Mild Recurrence Of Parasitemia Post-Treatment Cessation Observed | Activity (Plasmodium yoelii [19]): Active; Significant Recurrence Of Parasitemia Observed | Activity [20]: Toxic | Activity [21]: Toxic | Tmax [22]: 4.98 min | IC50 (Plasmodium falciparum [5]): 5.2 nM | IC50 (Plasmodium falciparum [7]): 1.7 nM
